Assay results from patent US9212130B2, “Heterocyclic derivative and pharmaceutical composition comprising the same” (SHIONOGI & CO., LTD., priority 2010, dated 2015).

These compounds were tested against human P2X3 receptor (Homo sapiens (Human), UniProt P56373) (assay: Evaluation of human P2X3 receptor inhibitory activity (ATP-induced Fluo-3 fluorescence, FDSS 3000)). Conditions: C6BU-1 cell transfected with human P2X3 receptor gene.
Chain of human P2X3 receptor (P56373 whole entry): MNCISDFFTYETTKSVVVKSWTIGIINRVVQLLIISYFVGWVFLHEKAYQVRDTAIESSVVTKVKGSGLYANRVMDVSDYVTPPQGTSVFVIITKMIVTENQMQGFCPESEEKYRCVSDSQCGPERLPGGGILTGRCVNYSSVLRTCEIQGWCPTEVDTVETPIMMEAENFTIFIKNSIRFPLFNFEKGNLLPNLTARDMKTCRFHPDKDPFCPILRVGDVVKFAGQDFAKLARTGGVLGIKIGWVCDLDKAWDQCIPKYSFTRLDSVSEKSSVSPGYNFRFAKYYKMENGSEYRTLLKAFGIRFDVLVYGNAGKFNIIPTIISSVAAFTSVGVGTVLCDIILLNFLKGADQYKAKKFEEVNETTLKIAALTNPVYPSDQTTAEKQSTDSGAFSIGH
Type: cell-based
Experimental: The plate was placed in High-Throughput Screening System FDSS 3000 (Hamamatsu Photonics K.K.). […] Five minutes after, 50 nM ATP solution (50 μL) prepared by dilution with the dilution buffer was dispensed through the built-in automatic dispenser, and the measurement of fluorescence intensity was continued for 3 min. For each well, the specific maximum fluorescence intensity was calculated as the ratio of the maximum fluorescence intensity after addition of the ATP solution to the fluorescence intensity at the starting of the measurement. […] FDSS software (Hamamatsu Photonics K.K.) was used for calculation of the specific maximum fluorescence intensity. IC50 was calculated using Microsoft Excel (Microsoft. Corporation) and XLfit (idbs Ltd.)
The aforementioned in mM, μM and nM are each means mmol/L, μmol/L and nmol/L, respectively.
In tables, μM means μmol/L.
Work on `CC(C)Oc1ccc(Nc2[nH]c(=O)n(C)c(=O)c2Cc2ccc(Cl)cc2)cc1F` [I-001] yielded an IC50 of 901 nM. Compound `CC(C)Oc1ccc(Nc2cc(=O)n(Cc3ccc(Cl)cc3)c(=O)n2Cc2ccc(Cl)cc2)cc1Cl` [I-005] has an IC50 of 238 nM. Compound `COC(=O)C(C)(C)Cn1c(=O)cc(Nc2ccc(OC(C)C)c(Cl)c2)n(Cc2ccc(Cl)cc2)c1=O` [I-010] has an IC50 of 10 nM. For `CC(C)Oc1ccc(Nc2cc(=O)n(CC(C)(C)C(=O)O)c(=O)n2Cc2ccc(Cl)cc2)cc1Cl` [I-012], the IC50 was 6 nM. Work on `Cc1ccc(Cc2c(Nc3ccc(OC(C)C)cc3)[nH]c(=O)n(Cc3ccccc3)c2=O)cc1` [I-014] yielded an IC50 of 404 nM. Work on `COC(=O)C(C)(C)Cn1c(=O)cc(Nc2ccc(OC(C)C)c(F)c2)n(Cc2ccc(Cl)cc2)c1=O` [I-020] yielded an IC50 of 28 nM. `CC(C)Oc1ccc(Nc2ncc(Cc3ccccc3)c(=O)n2Cc2ccc(Cl)cc2)cc1Cl` [I-022] gave an IC50 of 147 nM. `CC(C)Oc1ccc(Nc2nc(=O)c(Cc3ccccc3)cn2Cc2ccc(Cl)cc2)cc1Cl` [I-023, 5-benzyl-1-(4-chlorobenzyl)-2-(3-chloro-4-isopropoxyphenylamino)pyrimidine-4(1H)-one] was tested, and the IC50 was 148 nM. `CCOC(=O)c1cn(Cc2ccccc2)c(=O)cc1Nc1ccc(OC(C)C)c(Cl)c1` [I-046, 4-(3-chloro-4-isopropoxyphenylamino)-1-benzyl-5-(ethoxycarbonyl)pyridine-2(1H)-one] showed an IC50 of 395 nM. `CCOC(=O)c1cn(Cc2ccccc2)c(Nc2ccc(OC(C)C)c(Cl)c2)cc1=O` [I-049] was tested, and the IC50 was 796 nM. For `CCOC(=O)c1cn(Cc2ccccc2)c(=O)cc1Nc1ccc(OC(C)C)c(Nc2ccc(OC(C)C)c(Cl)c2)c1` [I-061], the IC50 was 748 nM. `CC(C)Oc1ccc(Nc2ccc(Cc3nc(N(C)C)oc(=O)c3Cl)cc2)cc1F` [I-063] gave an IC50 of 688 nM. With `CC(C)Oc1ccc(Nc2cc(=O)n(Cc3ccccc3)cc2C(=O)c2ccc(Cl)cc2)cc1Cl` [I-065, 4-(3-chloro-4-isopropoxyphenylamino)-1-benzyl-5-(4-chlorobenzoyl)pyridine-2(1H)-one] the IC50 was 128 nM. `CC(C)Oc1ccc(Nc2cc(=O)n(Cc3ccccc3)cc2Cc2ccc(Cl)cc2)cc1Cl` [I-067, 4-(3-chloro-4-isopropoxyphenylamino)-1-benzyl-5-(4-chlorobenzyl)pyridine-2(1H)-one] gave an IC50 of 310 nM. Work on `CC(C)Oc1ccc(Nc2cc(=O)n(Cc3ccccc3)cc2C(O)c2ccc(Cl)cc2)cc1Cl` (stereo not drawn) [I-068, 4-(3-chloro-4-isopropoxyphenylamino)-1-benzyl-5-(4-chloro-α-hydroxybenzyl)pyridine-2(1H)-one] yielded an IC50 of 105 nM. Work on `CC(C)Oc1ccc(Nc2oc(Cc3ccccc3)nc2Cc2ccc(Cl)cc2)cc1F` [I-070, 4-(4-chlorobenzyl)-2-benzyl-5-(3-fluoro-4-isopropoxyphenylamino)oxazole] yielded an IC50 of 635 nM. With `CCNc1ccc(Nc2ccc(OC(C)C)cc2)c(Cc2ccc(Cl)cc2)c1` [I-071, 1-(4-chlorobenzyl)-3-ethylamino-6-(4-isopropoxyphenylamino)benzene] the IC50 was 502 nM. `CCc1cnc(Nc2ccc(OC(C)C)c(F)c2)c(Oc2ccc(C)cc2)n1` [I-072, 5-ethyl-2-(3-fluoro-4-isopropoxyphenylamino)-3-(4-methylphenoxy)pyrazine] was tested, and the IC50 was 749 nM. `CC(C)Oc1ccc(Nc2cc(=O)n(CC3COC(C)(C)OC3)c(=O)n2Cc2ccc(Cl)cc2)cc1Cl` [I-094] was tested, and the IC50 was 5 nM. For `COC(=O)[C@@H](C)Cn1c(=O)cc(Nc2ccc(OC(C)C)c(Cl)c2)n(Cc2ccc(Cl)cc2)c1=O` [I-095], the IC50 was 16 nM. For `CC(C)Oc1ccc(Nc2nc(=O)c(/C=C/C(=O)O)cn2Cc2ccc(Cl)cc2)cc1Cl` [I-097], the IC50 was 307 nM. `CCOC(=O)/C=C/c1cn(Cc2ccc(Cl)cc2)c(Nc2ccc(OC(C)C)c(Cl)c2)nc1=O` [I-098] showed an IC50 of 233 nM. Work on `CC(C)Oc1ccc(Nc2cc(=O)n(CC(CO)CO)c(=O)n2Cc2ccc(Cl)cc2)cc1Cl` [I-099] yielded an IC50 of 6 nM. `COC(=O)CCCn1c(=O)cc(Nc2ccc(OC(C)C)c(Cl)c2)n(Cc2ccc(Cl)cc2)c1=O` [I-103] showed an IC50 of 14 nM.
